{"source": "patent US20120029054A1", "about": "“RNA Interference Mediated Inhibition of GATA Binding Protein 3 (GATA3) Gene Expression Using Short Intefering Nucleic Acid (siNA)” (Merck Sharp & Dohme Corp., priority 2009, published 2012)", "key": {"[1]": {"system": "GATA3 mRNA", "test": "GATA3 mRNA knock-down (Taqman qRT-PCR) after RNAiMax transfection of human MCF7 cells; screen and IC50 dose response", "assay_type": "cell-based", "conditions": "for % KD Human: 10 nM siNA, 24 hrs; for % KD GATA3 mRNA at 10 nM: Table 4, MCF7 cells; for % KD GATA3 10 nM: Table 5, MCF7 cells", "in_short": "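MCF7 cells (5000/well, 24 h) transfected with siNA–RNAiMax complexes at 10 nM final siNA for 24 h without media change. GATA3 mRNA measured by TaqMan qRT-PCR, alongside β-actin and GAPDH probes. % knock-down by comparative Ct (2^−ΔΔCt) relative to non-targeting control siNA.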"}, "[2]": {"system": "GATA3 mRNA", "test": "GATA3 mRNA knock-down (Taqman qRT-PCR) after RNAiMax transfection of mouse RAG cells", "assay_type": "cell-based", "conditions": "10 nM siNA, 24 hrs, average of 2 experiments", "in_short": "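Murine RAG cells, 5000/well, transfected 24 h after plating with siNA (10 nM final) complexed with RNAiMax, harvested after 24 h. GATA3 mRNA quantified by TaqMan qRT-PCR with GAPDH reference; % knock-down by comparative Ct (2^−ΔΔCt) versus non-targeting control siNA.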"}, "[3]": {"conditions": "mean ± S.D., * Hs00231122_m1 Taqman Assay"}, "[4]": {"conditions": "mean ± S.D., ** Hs00922328_m1 Taqman Assay"}}}
{"substance": "30263-DC: GATA3 siNA duplex, site 817: sense B cGccucuGcuucAuGGAuc TTB (SEQ 79), antisense GAUccAuGAAGcAGAGGcGUU (SEQ 80) (sense CGCCUCUGCUUCAUGGAUCTT; antisense GAUCCAUGAAGCAGAGGCGUU; chemistry not fully specified)", "values": [{"measurement": "% KD Human", "setting": "[1]; MCF7 cells, * Hs00231122_m1 Taqman Assay", "value": "74 ± 5* %"}, {"measurement": "% KD Human", "setting": "[1]; MCF7 cells, ** Hs00922328_m1 Taqman Assay", "value": "60 ± 10** %"}, {"measurement": "IC50", "setting": "[1]; MCF7 cells, mean ± S.D.", "value": "0.104 ± 0.041", "unit": "nM"}, {"measurement": "% KD GATA3 mRNA at 10 nM", "setting": "[1]; [3]", "value": "74 ± 5* %"}, {"measurement": "% KD GATA3 mRNA at 10 nM", "setting": "[1]; [4]", "value": "60 ± 10** %"}, {"measurement": "% KD GATA3 10 nM", "setting": "[1]; [3]", "value": "74 ± 5* %"}, {"measurement": "% KD GATA3 10 nM", "setting": "[1]; [4]", "value": "60 ± 10** %"}, {"measurement": "% KD Mouse", "setting": "[2]", "value": "9 ± 13", "unit": "%"}]}
